According to US20100304975A1, “PROCESS FOR […] RESISTANCE TO AN ABIOTIC STRESS” (ELICITYL, priority 2007, published 2010):

Tests used:
Format in all cases: in vivo
Pinot noir = test: Frost-resistance of vine plants after foliar spraying, Pinot noir; conditions: for Gain: cold stress -3 to -5° C. 12 hours after application
Method: (§1) Plants originating from different vine varieties: the Chardonnay, Pinot noir and Cabernet-Sauvignon varieties are used. Each sample, composed of 5 to 21 plants, is treated by foliar spraying at different vegetative stages on the BBCH scale with a mixture containing the xyloglucan elicitor, HEPTAMALOXYLOGLUCAN or XFGol in solution at variable doses; the spraying of 2.5 ml of solution per plant is carried out using a sprayer (deviation of +/−1%).
(§2) 12 hours after the application of the elicitor, the plants were exposed to cold stress at −3 to −5° C. After exposure to the cold, the plants are placed in a climatic chamber at 20° C. with a 12-hour day/night alternation. The appearance of the leaves is observed 24 hours and 72 hours after removal from the cold. The effects of the cold are evaluated by observing the foliar necroses induced by frost and the plants are kept for several months in order to monitor their subsequent development.
(§3) The results are expressed by the protection index IP: IP (%)=100−P; P, being the proportion of necrotized leaves.

Chardonnay = test: Frost-resistance of vine plants after foliar spraying, Chardonnay; conditions: for Gain: cold stress -3 to -5° C. 12 hours after application
Method: as §1, §2, §3

Cabernet-Sauvignon = test: Frost-resistance of vine plants after foliar spraying, Cabernet-Sauvignon; conditions: for Gain: Cabernet Sauvignon, cold stress -3 to -5° C. 12 hours after application
Method: as §1, §2, §3

kiwi plants = test: Frost-resistance of kiwi plants after foliar spraying (death of buds); conditions: for Gain % / IP (protection index of kiwi buds; IP=100-P, P=proportion of dead buds): elicitor 500 nM
Method: The elicitor which is used is HEPTAMALOXYLOGLUCAN (or XFGol).
Before the cold stress, plants are treated or not by foliar spraying with a spray mixture containing HEPTAMALOXYLOGLUCAN.
After application of the spraying mixture, the plants were exposed to cold stress. In order to reproduce artificial conditions of cold stress, plants were placed in a climatic chamber.
The effects of cold are evaluated by observing the death of buds due to frost.
The results are expressed by the protection index IP: IP (%)=100-P; P, being the proportion of dead buds.
The results are also expressed in gain:
Increase of protection of kiwi plants elicited by the product PEL101GV (500 nM). IP corresponds to the protection index of kiwi buds, 28 days after the cold stress at −2,8° C. or −4° C. (IP=100−P; P=proportion of dead buds)

[1] = spray mixture containing 5 nM, compared within a range of 0.5 nM to 5000 nM
[2] = 28 days after the cold stress at -2.8° C.
[3] = 28 days after the cold stress at -4° C.

With CC1OC(OC2C(OC3C(OCC4OC(OC(C(O)CO)C(O)C(O)CO)C(O)C(O)C4OC4OC(COC5OCC(O)C(O)C5O)C(O)C(O)C4O)OCC(O)C3O)OC(CO)C(O)C2O)C(O)C(O)C1O (stereo not drawn) [HEPTAMALOXYLOGLUCAN] the Gain (Pinot noir; elicitor 0.5 nM foliar spray) was 0%, the Gain (Pinot noir; elicitor 5 nM foliar spray) was 34% and the Gain (Pinot noir; elicitor 50 nM foliar spray) was 0%. The Gain (Pinot noir; elicitor 500 nM foliar spray) was 27%, the Gain (Pinot noir; elicitor 5000 nM foliar spray) was 25% and the protection against frost (Pinot noir; [1]) was “more efficient than the other doses”. It also gave a Gain (Chardonnay; elicitor 0.5 nM foliar spray) of 28%, a Gain (Chardonnay; elicitor 5 nM foliar spray) of 42% and a Gain (Chardonnay; elicitor 50 nM foliar spray) of 9%. The Gain (Chardonnay; elicitor 500 nM foliar spray) was 0%, the Gain (Chardonnay; elicitor 5000 nM foliar spray) was 28% and the protection against frost (Chardonnay; [1]) was “more efficient than the other doses”. The Gain (Cabernet-Sauvignon; elicitor 5 nM foliar spray) was 46%, the Gain (Cabernet-Sauvignon; elicitor 50 nM foliar spray) was 35% and the Gain (Cabernet-Sauvignon; elicitor 500 nM foliar spray) was 76%. The protection against frost (Cabernet-Sauvignon; Cabernet sauvignon, spray mixture containing 500 nM, compared with the other doses) was “more efficient than the other doses”, the Gain % (kiwi plants; [2]) was 27% and the “IP (protection index of kiwi buds; IP=100-P, P=proportion of dead buds)” value (kiwi plants; [2]) was 81%. For the same molecule, the Gain % (kiwi plants; [3]) was 87%, the “IP (protection index of kiwi buds; IP=100-P, P=proportion of dead buds)” value (kiwi plants; [3]) was 56% and the “protection of the kiwi buds against frost” value (kiwi plants; treated versus control) was “better protection”.
